Values joined by “and” are separate entries in the source; they are usually repeats but may differ in a detail not shown here. Equal values may be shown once. ± gives the uncertainty stated by the source.
Experiment: xn = mol fraction of the nth substance listed

O=C1O[C@H]([C@@H](O)CO)C(O)=C1O + O
Conditions | viscosity
293.15 K, 101 kPa, x1 = 0.00359 | 1.078 ± 0.023 mPa·s and 1.081 ± 0.023 mPa·s and 1.077 ± 0.017 mPa·s
293.15 K, 101 kPa, x1 = 0.005375 | 1.124 ± 0.024 mPa·s and 1.122 ± 0.024 mPa·s and 1.122 ± 0.018 mPa·s
293.15 K, 101 kPa, x1 = 0.007156 | 1.162 ± 0.019 mPa·s
293.15 K, 101.3 kPa, x1 = 0.0001803 | 1.013 ± 0.06 mPa·s
293.15 K, 101.3 kPa, x1 = 0.00036 | 1.021 ± 0.06 mPa·s
293.15 K, 101.3 kPa, x1 = 0.0005398 | 1.029 ± 0.06 mPa·s
298.15 K, 101 kPa, x1 = 0.000364 | 0.899 ± 0.009 mPa·s and 0.8985 ± 0.0083 mPa·s
298.15 K, 101 kPa, x1 = 0.000657 | 0.904 ± 0.009 mPa·s and 0.9039 ± 0.0084 mPa·s
298.15 K, 101 kPa, x1 = 0.001 | 0.823 ± 0.082 mPa·s
298.15 K, 101 kPa, x1 = 0.00125 | 0.916 ± 0.009 mPa·s and 0.9161 ± 0.0085 mPa·s
298.15 K, 101 kPa, x1 = 0.00155 | 0.922 ± 0.009 mPa·s and 0.9216 ± 0.0086 mPa·s
298.15 K, 101 kPa, x1 = 0.001665 | 0.9245 ± 0.0066 mPa·s
298.15 K, 101 kPa, x1 = 0.001856 | 0.927 ± 0.009 mPa·s and 0.9273 ± 0.0086 mPa·s
298.15 K, 101 kPa, x1 = 0.002776 | 0.9451 ± 0.0067 mPa·s
298.15 K, 101 kPa, x1 = 0.003 | 0.835 ± 0.084 mPa·s
298.15 K, 101 kPa, x1 = 0.005 | 0.847 ± 0.085 mPa·s
298.15 K, 101 kPa, x1 = 0.005396 | 0.9979 ± 0.0069 mPa·s
298.15 K, 101 kPa, x1 = 0.009999 | 1.1 ± 0.0074 mPa·s
298.15 K, 101.3 kPa, x1 = 0.0001803 | 0.905 ± 0.06 mPa·s
298.15 K, 101.3 kPa, x1 = 0.00036 | 0.913 ± 0.06 mPa·s
298.15 K, 101.3 kPa, x1 = 0.0005398 | 0.918 ± 0.06 mPa·s
303.15 K, 101 kPa, x1 = 0.001798 | 0.8267 ± 0.017 mPa·s and 0.825 ± 0.014 mPa·s
303.15 K, 101 kPa, x1 = 0.0018 | 0.8248 ± 0.014 mPa·s
303.15 K, 101 kPa, x1 = 0.00359 | 0.8564 ± 0.018 mPa·s and 0.8524 ± 0.014 mPa·s
303.15 K, 101 kPa, x1 = 0.005375 | 0.8897 ± 0.019 mPa·s and 0.8876 ± 0.019 mPa·s and 0.8876 ± 0.015 mPa·s
303.15 K, 101 kPa, x1 = 0.007154 | 0.9213 ± 0.019 mPa·s and 0.9197 ± 0.019 mPa·s
303.15 K, 101 kPa, x1 = 0.007156 | 0.916 ± 0.015 mPa·s
303.15 K, 101.3 kPa, x1 = 0.0001803 | 0.812 ± 0.06 mPa·s
303.15 K, 101.3 kPa, x1 = 0.00036 | 0.817 ± 0.06 mPa·s
303.15 K, 101.3 kPa, x1 = 0.0005398 | 0.821 ± 0.06 mPa·s
308.15 K, 101 kPa, x1 = 0.000364 | 0.724 ± 0.008 mPa·s and 0.7239 ± 0.0068 mPa·s
308.15 K, 101 kPa, x1 = 0.000657 | 0.728 ± 0.008 mPa·s and 0.7282 ± 0.0069 mPa·s
308.15 K, 101 kPa, x1 = 0.0007676 | 0.7308 ± 0.0059 mPa·s
308.15 K, 101 kPa, x1 = 0.00125 | 0.738 ± 0.008 mPa·s and 0.7377 ± 0.007 mPa·s
308.15 K, 101 kPa, x1 = 0.00155 | 0.743 ± 0.008 mPa·s and 0.7431 ± 0.007 mPa·s
308.15 K, 101 kPa, x1 = 0.001665 | 0.7425 ± 0.0059 mPa·s
308.15 K, 101 kPa, x1 = 0.001856 | 0.748 ± 0.008 mPa·s and 0.7477 ± 0.0075 mPa·s
308.15 K, 101 kPa, x1 = 0.002776 | 0.7609 ± 0.006 mPa·s
308.15 K, 101 kPa, x1 = 0.005396 | 0.8018 ± 0.0062 mPa·s
308.15 K, 101 kPa, x1 = 0.006205 | 0.8139 ± 0.0062 mPa·s
308.15 K, 101 kPa, x1 = 0.009999 | 0.8791 ± 0.0065 mPa·s
308.15 K, 101.3 kPa, x1 = 0.0001803 | 0.733 ± 0.06 mPa·s
308.15 K, 101.3 kPa, x1 = 0.00036 | 0.738 ± 0.06 mPa·s
308.15 K, 101.3 kPa, x1 = 0.0005398 | 0.743 ± 0.06 mPa·s
313.15 K, 101 kPa, x1 = 0.001798 | 0.6755 ± 0.014 mPa·s and 0.6783 ± 0.012 mPa·s
313.15 K, 101 kPa, x1 = 0.0018 | 0.6734 ± 0.012 mPa·s
313.15 K, 101 kPa, x1 = 0.00359 | 0.6979 ± 0.012 mPa·s
313.15 K, 101 kPa, x1 = 0.005375 | 0.7227 ± 0.015 mPa·s and 0.7222 ± 0.012 mPa·s
313.15 K, 101 kPa, x1 = 0.007154 | 0.7485 ± 0.016 mPa·s and 0.7473 ± 0.016 mPa·s
313.15 K, 101 kPa, x1 = 0.007156 | 0.7432 ± 0.013 mPa·s
313.15 K, 101.3 kPa, x1 = 0.0001803 | 0.668 ± 0.06 mPa·s
313.15 K, 101.3 kPa, x1 = 0.00036 | 0.671 ± 0.06 mPa·s
313.15 K, 101.3 kPa, x1 = 0.0005398 | 0.676 ± 0.06 mPa·s
318.15 K, 101 kPa, x1 = 0.000364 | 0.6 ± 0.008 mPa·s and 0.5998 ± 0.0057 mPa·s
318.15 K, 101 kPa, x1 = 0.000657 | 0.604 ± 0.008 mPa·s and 0.6039 ± 0.0058 mPa·s
318.15 K, 101 kPa, x1 = 0.0007676 | 0.6078 ± 0.0055 mPa·s
318.15 K, 101 kPa, x1 = 0.000952 | 0.608 ± 0.008 mPa·s and 0.6081 ± 0.0058 mPa·s
318.15 K, 101 kPa, x1 = 0.00125 | 0.612 ± 0.008 mPa·s and 0.6122 ± 0.0059 mPa·s
318.15 K, 101 kPa, x1 = 0.00155 | 0.616 ± 0.008 mPa·s
318.15 K, 101 kPa, x1 = 0.001665 | 0.6147 ± 0.0055 mPa·s
318.15 K, 101 kPa, x1 = 0.001856 | 0.621 ± 0.008 mPa·s
318.15 K, 101 kPa, x1 = 0.002776 | 0.6296 ± 0.0055 mPa·s
318.15 K, 101 kPa, x1 = 0.006205 | 0.6736 ± 0.0057 mPa·s
318.15 K, 101 kPa, x1 = 0.009999 | 0.725 ± 0.0059 mPa·s
323.15 K, 101 kPa, x1 = 0.001798 | 0.5655 ± 0.012 mPa·s and 0.5637 ± 0.01 mPa·s
323.15 K, 101 kPa, x1 = 0.0018 | 0.5616 ± 0.01 mPa·s
323.15 K, 101 kPa, x1 = 0.00359 | 0.5832 ± 0.012 mPa·s and 0.5805 ± 0.01 mPa·s
323.15 K, 101 kPa, x1 = 0.005375 | 0.6022 ± 0.013 mPa·s and 0.6013 ± 0.011 mPa·s
323.15 K, 101 kPa, x1 = 0.007154 | 0.6221 ± 0.013 mPa·s and 0.6216 ± 0.013 mPa·s
323.15 K, 101 kPa, x1 = 0.007156 | 0.6179 ± 0.011 mPa·s

CCN(CC)CCO + O=C1CCCCC1
viscosity [mPa·s], 101 kPa
Conditions | 298.15 K | 308.15 K | 318.15 K
x2 = 0.0501 | 3.267 ± 0.02 | 2.46 ± 0.015 | 1.885 ± 0.012
x2 = 0.1004 | 3.133 ± 0.019 | 2.336 ± 0.015 | 1.766 ± 0.011
x2 = 0.15 | 3.002 ± 0.018 | 2.228 ± 0.014 | 1.663 ± 0.011
x2 = 0.2 | 2.878 ± 0.018 | 2.126 ± 0.013 | 1.564 ± 0.01
x2 = 0.3002 | 2.662 ± 0.016 | 1.939 ± 0.012 | 1.417 ± 0.009
x2 = 0.4 | 2.49 ± 0.015 | 1.799 ± 0.011 | 1.309 ± 0.009
x2 = 0.5 | 2.344 ± 0.015 | 1.703 ± 0.011 | 1.24 ± 0.008
x2 = 0.5999 | 2.234 ± 0.014 | 1.647 ± 0.01 | 1.224 ± 0.008
x2 = 0.6503 | 2.191 ± 0.014 | 1.639 ± 0.01 | 1.229 ± 0.008
x2 = 0.6995 | 2.159 ± 0.013 | 1.639 ± 0.01 | 1.249 ± 0.008
x2 = 0.7997 | 2.127 ± 0.013 | 1.663 ± 0.011 | 1.306 ± 0.008
x2 = 0.8997 | 2.121 ± 0.013 | 1.717 ± 0.011 | 1.389 ± 0.009
x2 = 0.9497 | 2.133 ± 0.013 | 1.747 ± 0.011 | 1.443 ± 0.009

OC1CCCCC1 + O=C1CCCCC1
298.15 K, 101.3 kPa
Conditions | viscosity [mPa·s]
x2 = 0.2 | 13.85 ± 0.18
x2 = 0.4 | 6.29 ± 0.07
x2 = 0.51 | 4.54 ± 0.05
x2 = 0.6 | 3.54 ± 0.04
x2 = 0.8 | 2.38 ± 0.02

CCCCCCCCCCCCCC[P+](CCCCCC)(CCCCCC)CCCCCC.c1ccc2[n-]nnc2c1 + O=C=O
Conditions | viscosity [mPa·s]
298.15 K, 100 kPa, x2 = 0.19 | 443 ± 18

CCCCN(CCC#N)CCCC + O=S=O
303.15 K, 100 kPa
Conditions | viscosity [mPa·s]
x2 = 0.17 | 4.1
x2 = 0.34 | 8
x2 = 0.45 | 13.8

OC1CCCCC1 + OC1CCCC1
viscosity [mPa·s], 100 kPa
Conditions | x2 = 0.1 | x2 = 0.3 | x2 = 0.5 | x2 = 0.7 | x2 = 0.9
303.15 K | 34.92 ± 0.36 | 23.18 ± 0.3 | 16.54 ± 0.23 | 12.51 ± 0.19 | 9.2 ± 0.18
308.15 K | 27.86 ± 0.34 | 19.17 ± 0.25 | 13.78 ± 0.2 | 10.67 ± 0.18 | 7.88 ± 0.17
313.15 K | 21.32 ± 0.29 | 15.13 ± 0.23 | 11.11 ± 0.19 | 8.78 ± 0.18 | 6.57 ± 0.17
318.16 K | 16.48 ± 0.24 | 11.96 ± 0.2 | 9.04 ± 0.18 | 7.2 ± 0.17 | 5.49 ± 0.17

CC1(C)OCC(CO)O1 (stereo unspecified) + OCC(O)CO
viscosity [mPa·s], 101 kPa
Conditions | x1 = 0.1 | x1 = 0.2015 | x1 = 0.3 | x1 = 0.4012 | x1 = 0.499 | x1 = 0.6002 | x1 = 0.7 | x1 = 0.801 | x1 = 0.9003
298.15 K | 803.5 ± 46 | 702.6 ± 39 | 600.8 ± 31 | 502.2 ± 25 | 407.7 ± 19 | 319.4 ± 14 | 243.3 ± 9.3 | 163.1 ± 5.4 | 84.15 ± 2.3
308.15 K | 356.9 ± 16 | 310 ± 13 | 262 ± 11 | 212.8 ± 8.3 | 167.1 ± 6.2 | 129.5 ± 4.5 | 97.75 ± 3.2 | 69.56 ± 2.1 | 35.83 ± 1.1
318.15 K | 175.4 ± 6.6 | 150 ± 5.4 | 123.5 ± 4.3 | 98.86 ± 3.3 | 75.9 ± 2.5 | 54.95 ± 1.9 | 43.91 ± 1.5 | 31.63 ± 1.1 | 16.65 ± 0.52

CCOC(=O)C(C)O (stereo unspecified) + OCCCO
101 kPa
Conditions | viscosity [mPa·s]
298.15 K, x1 = 0.4996 | 9.585 ± 0.18
303.15 K, x1 = 0.3 | 14.35 ± 0.28
303.15 K, x1 = 0.8 | 3.405 ± 0.066
313.15 K, x1 = 0.3998 | 7.365 ± 0.14
318.15 K, x1 = 0.3 | 8.235 ± 0.16
323.15 K, x1 = 0.5997 | 3.235 ± 0.062
